Columns and labels:
BALBc mice [1] = assay: Histopathology of ear sections (MEST); type: in vivo
Experimental: (§1) On day one, under anesthesia, all mice received 30 µL/mouse of Freund’s complete adjuvant (Thermo Scientific™, Waltham, MA, USA), subcutaneously, in the right flank and the abdominal fur was carefully shaved, without skin abrasion. Then animals were treated with 100 µL of locally applied solution (abdominal skin) of each tested substance, in a concentration of 200 µg mL^−1 solved in ethanol 70%, daily for the first 6 days. The left ear thickness of each mouse was measured with an electronic caliper (initial value). Each mouse was treated with 50 µL/ear of the same solution on the left ear pinnae on day 7—challenge and on day 14—rechallenge. Ear thickness was measured at 24 h and 48 h after challenge and rechallenge, respectively. Then mice were humanely sacrificed, under anesthesia, and ears were collected for inflammatory markers (IL1α, IL1β and IL6) assessment and histopathology.
(§2) For histopathological examination, the collected samples (liver and ears) were fixed in 10% buffered neutral formalin, embedded in paraffin, cut at 4 micrometer thickness, and stained using the Hematoxylin–Eosin (H&E) method. The slides were examined under a BX51 Olympus microscope, and images were taken with an Olympus UC 30 digital camera (Olympus, Hamburg, Germany) and processed using the Olympus Stream Basic program.

BALBc mice [2] = assay: Inflammatory cytokines in treated ear tissue, ELISA (MEST); type: in vivo
Experimental: (§3) For the oxidative stress assessment, the level of malondialdehyde, a marker of lipid peroxidation, was measured from lysates of liver samples (in vivo) and cells-BJ and HepG2 (in vitro), using the Malondialdehyde Colorimetric Assay Kit (TBA Method) provided by ElabScience. Tissue sample homogenates (liver and ear) were prepared as previously described by David et al.. […] Inflammatory reaction was assessed by measurement of the tumor necrosis factor α (TNFα) in liver samples, using the rat TNFα ELISA kit from EIAAB. IL1α and β and IL6 measurement from the mice ear lysates were completed by ELISA, using the respective kits from Quantikine ELISA Immunoassay kit. Tissue homogenate samples were treated according to manufacturer’s instructions; readings were performed at 450 nm with correction wavelength set at 540 nm, using an ELISA plate reader (Tecan, Grödig, Austria).
as §1

[3] = test system: HepG2 hepatocarcinoma cells; assay: Oxidative damage, malondialdehyde (MDA) in cell lysates, HepG2; type: cell-based, human; conditions: HepG2, 6 µM, 24 h, vs untreated controls
Experimental: as §3, with “Oxidative stress-induced damage was assessed in vitro by malondialdehyde (MDA) measurement from cell lysates. […] Cell lysates were then prepared as described. The concentration of 6 μM was chosen to mimic the clinical scenario [47]. […] For” for “For”, “manufacturer's” for “manufacturer’s”

BJ dermal fibroblasts [4] = assay: Oxidative damage, malondialdehyde (MDA) in cell lysates, BJ; type: cell-based, human; conditions: 6 µM, 24 h, vs untreated controls
Experimental: as §3, with “Oxidative stress-induced damage was assessed in vitro by malondialdehyde (MDA) measurement from cell lysates. […] Cell lysates were then prepared as described. The concentration of 6 μM was chosen to mimic the clinical scenario [47]. […] For” for “For”, “manufacturer's” for “manufacturer’s”

Candida albicans = test system: Candida albicans; design: method as in PMID 1799950; conditions: ICR mice, systemic Candida albicans infections, intraperitoneal; cited from earlier work
[5] = test system: HepG2 hepatocarcinoma cells; assay: Cell viability, MTS assay, HepG2 hepatocarcinoma cells; type: cell-based, human; conditions: for cell viability (effect in words): HepG2, 24 h, Figure 4; for IC50: Homo sapiens, HepG2 hepatocarcinoma cells, 24 h exposure, range 0.01–100 µM, MTS
Experimental: (§4) Dermal fibroblasts (BJ-ATCC CRL-2522™) and hepatocarcinoma cells (HepG2-HB-8065, ATCC, Gaithersburg, MD, USA) were employed. Cell culture medium used was Dulbecco modified Eagle medium (DMEM) supplemented with 5% FCS-fetal calf serum, 50 µg mL^−1 gentamycin, and 5 ng mL^−1 amphotericin, all from Biochrom AG (Berlin, Germany). Medium was changed twice a week. For all experiments, a medium with 2% FCS was used. […] The final concentration of DMSO in the solutions added to the cells was lower than 0.05%, without negative viability effects. Viability was measured using the MTS assay CellTiter 96® AQueous Non-Radioactive Cell Proliferation Assay from (Promega Corporation, Madison, WI, USA), as indicated by the producer. […] Negative controls were treated with medium. Viability was measured through colorimetry, using an ELISA plate reader (Tecan, Männedorf, Switzerland) at 540 nm. All experiments were performed in triplicate. […] Inhibitory concentration (IC50) was calculated. The statistical difference between experimental groups was evaluated by nonparametric Kruskal–Wallis test, followed by Dunns post-test; the statistical significance of the treatments and time exposure within the experimental groups was tested using two-way ANOVA, followed by Bonferroni post-tests; results were considered significant for p < 0.05. […] Statistical package used for data analysis was Prism version 4.00 for Windows, GraphPad Software, San Diego, CA, USA, www.graphpad.com. For IC50 calculation of the cell viability in vitro, the AAT Bioquest was used.

BJ dermal fibroblasts [6] = assay: Cell viability, MTS assay, BJ dermal fibroblasts; type: cell-based, human; conditions: for cell viability (effect in words): BJ, 24 h, Figure 4; for IC50: Homo sapiens, Fibroblast, BJ dermal fibroblasts, 24 h exposure, range 0.01–100 µM, MTS
Experimental: as §4

humans = conditions: 75 subjects, 500 mg daily for one year; cited from earlier work
[7] = Wistar rats, one oral dose 20 mg kg^−1 bw
Experimental: (§5) Regarding HPLC-MS Quantification, serum samples were processed according to the modified protocol described by Wang et al. [99]. According to this protocol, 0.5 mL of serum was extracted into 3 mL of ethyl acetate by shaking for 3 min, after which the mixture was centrifuged for 8 min at 4000 rpm. The organic layer, after being transferred to a clean tube, was evaporated at 37 °C under a stream of nitrogen. The residue was resuspended in 100 μL acetonitrile and then analyzed using a LC2010 Shimadzu (Shimadzu, Kyoto, Japan) high-performance liquid chromatograph, equipped with diode array (DAD) and quadrupole mass spectrometer (MS) detectors.
(§6) Chromatographic separation was performed on a Grace Alltima C18 column (100 × 3 mm, 3 μm), at a temperature of 40 °C, using acetonitrile-water mixture 1:1 (V/V) with 0.1% formic acid as the mobile phase. The elution was carried out isocratically with 0.4 mL min^−1 flow rate. The injected sample volume was 10 μL. The mass spectrometer parameters were the capillary voltage of 1.5 kV, desolvation temperature of 250 °C, and interface temperature of 200 °C.

BALBc mice [8] = conditions: mouse, in vivo
in vivo = conditions: female, Wistar, rat, po, 20 mg/kg
Experimental: as §5, §6

[9] = design: method as in PMID 3767339; conditions: healthy humans, therapeutic oral dose of 200 mg KTZ; cited from earlier work
Wistar rats = assay: Liver histopathology (HE stain); type: in vivo; conditions: oral 20 mg kg^−1 bw, 30 min, 24 h, 7 days
Experimental: Adult female Wistar rats, 3 months old (200 g body weight), were kept in standard cages type II, 5 animals/cage, in constant conditions of humidity (65%), temperature (21 °C), and day/night cycles of 12 h, fed with standard food (Cantacuzino Institute, Bucharest, Romania) and water ad libitum. […] […] Blood and liver samples were collected.
For the histopathological examination, the liver samples collected from the left lateral lobe and right medial lobe were fixed in 10% buffered neutral formalin, embedded in paraffin, cut at 4 µm thickness, and stained using the Hematoxylin–Eosin (H&E) staining method. The slides were examined under a BX51 Olympus microscope, and images were taken with an Olympus UC 30 digital camera (Olympus, Hamburg, Germany) and processed using the Olympus Stream Basic program.
as §2

[10] = BALBc mice, after MEST, HE stain
[11] = BALBc mice, ear collected at R48 h, ELISA, vs control

SMILES	histology of ear pinna (BALBc mice [1]; [10])	IL1α in treated ear tissue (BALBc mice [2]; [11])	IL1β in treated ear tissue (BALBc mice [2]; [11])	IL6 in treated ear tissue (BALBc mice [2]; [11])	malondialdehyde (MDA), marker for lipid peroxidation [3]	malondialdehyde (MDA), marker for lipid peroxidation (BJ dermal fibroblasts [4])	cell viability (effect in words) [5]	IC50 [5] [µM]	cell viability (effect in words) (BJ dermal fibroblasts [6])	IC50 (BJ dermal fibroblasts [6]) [µM]	further results
O=[N+]([O-])c1ccc(Cl)c([N+](=O)[O-])c1 [DNCB, dinitrochlorobenzene]	contact dermatitis	significant increase	significant increase	significant increase	–	–	–	–	–	–	–
O=C(O)/C=C/C(=O)O [FUM, trans-2-butenedioic acid]	–	–	–	–	slightly increased	smaller effect	minimal effect	3.19	minimal effect	7.26	histology of ear pinna (BALBc mice [1]; mouse, in vivo): No histological changes; IL1α in treated ear tissue (BALBc mice [2]; mouse, in vivo): decreased; IL1β in treated ear tissue (BALBc mice [2]; mouse, in vivo): decreased; IL6 in treated ear tissue (BALBc mice [2]; mouse, in vivo): increased; survival of infected mice (Candida albicans): prolonged survival and prevented one-fifth of deaths; adverse effects in humans (humans): no evidence of adverse effects
CC(=O)N1CCN(c2ccc(OCC3COC(Cn4ccnc4)(c4ccc(Cl)cc4Cl)O3)cc2)CC1 (stereo not drawn) [KTZ, cis-1-acetyl-4-[4-[[(2RS,4SR)-2-(2,4-dichlorophenyl)-2-(1H-imidazol-1-ylmethyl)-1,3-dioxolan-4-yl]methoxy]phenyl]piperazine]	No histological changes	decreased	decreased	increased	decreased	decreased	decreased	7.48	decreased	7.45	detection in plasma over time [7]: not detected after 6 h; epicutaneous sensitization, ear thickness (BALBc mice [8]): did not induce any allergic reactions; AUC(0-t) (in vivo): 3820 ng·h/mL; Cmax (in vivo; Cmax, Wistar rats, one oral dose 20 mg kg^−1 bw, serum): 5820 ± 700 ng/mL; plasma concentration [9]: 5.85 µM; liver histopathology (Wistar rats): normal hepatic architecture
